From publication PMC4906374, “Global Profiling and Inhibition of Protein Lipidation in Vector and Host Stages of the Sleeping Sickness Parasite Trypanosoma brucei” (ACS Infectious Diseases, 2016)

Target: T1, TbNMT (Trypanosoma brucei, UniProt Q388H8)
T1 construct: gene Tb10.61.2550; native full-length enzyme in intact bloodstream form parasites; not purified
T1 sequence (Q388H8 1-446): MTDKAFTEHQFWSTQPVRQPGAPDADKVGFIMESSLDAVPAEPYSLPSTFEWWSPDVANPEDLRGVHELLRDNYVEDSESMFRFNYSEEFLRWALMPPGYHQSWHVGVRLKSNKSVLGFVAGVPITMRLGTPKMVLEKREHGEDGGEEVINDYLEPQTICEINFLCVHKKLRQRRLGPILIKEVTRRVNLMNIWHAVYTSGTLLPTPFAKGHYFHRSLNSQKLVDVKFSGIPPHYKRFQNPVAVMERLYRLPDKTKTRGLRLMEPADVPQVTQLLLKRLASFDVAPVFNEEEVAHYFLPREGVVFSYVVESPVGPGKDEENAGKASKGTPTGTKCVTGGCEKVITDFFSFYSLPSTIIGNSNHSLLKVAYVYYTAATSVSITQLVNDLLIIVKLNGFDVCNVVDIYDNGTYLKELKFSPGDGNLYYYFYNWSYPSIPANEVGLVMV
Assay: in-gel fluorescence of YnMyr tagging (CuAAC, NaOH-treated gels) in intact BSF parasites
Type: cell-based
Settings: read-out: TC50 (tagging-IC50); 100 uM YnMyr, 1 h inhibitor pretreatment, 8 h labelling, 37 °C; whole-parasite value, not isolated enzyme

## Cc1noc(C)c1NS(=O)(=O)c1c(Cl)cc(-c2ccnc(N3CCNCC3)c2)cc1Cl [compound 2, inhibitor 2]
  IC50: 2570 ± 40 nM
